The text below walks through data of patent publication US4051129A, “Process for preparing 7-methoxycephalosporin compounds” (Sankyo Company Limited, priority 1974, dated 1977).

Holding throughout (assay type): cell-based
Assay [1] relates to Shigella flexneri Komagome. The experiment in a line: Minimum Inhibitory Concentration, Shigella flexneri Komagome. The conditions noted are these: III: Shigella flexneri Komagome.
In assay [2] the test system is Salmonella enteritidis Gartner. The assay can be described thus: Minimum Inhibitory Concentration, Salmonella enteritidis Gartner. The conditions noted are these: Salmonella enterica; VI: Salmonella enteritidis Gartner.
In another assay the test system is Proteus vulgaris. The experiment in a line: Minimum Inhibitory Concentration, Proteus vulgaris. The conditions noted are these: V: Proteus vulgaris.
Assay [3] has as its system Staphylococcus aureus 209 P. The experiment in a line: Minimum Inhibitory Concentration, Staphylococcus aureus 209 P. The conditions noted are these: IA: Staphylococcus aureus 209 P.
In assay [4] the test system is Klebsiella neumoniae 846 (resistant to CER). The experiment in a line: Minimum Inhibitory Concentration, Klebsiella neumoniae 846 (resistant to CER). The following applies: read-out: Minimum Inhibitory Concentration.
In a further assay the test system is Klebsiella neumoniae 806. The assay can be described thus: Minimum Inhibitory Concentration, Klebsiella neumoniae 806. The conditions noted are these: Klebsiella, 806, read-out: Minimum Inhibitory Concentration.
Assay [5] relates to Staphylococcus aureus (resistant to CP and PC). The experiment in a line: Minimum Inhibitory Concentration, Staphylococcus aureus (resistant to CP and PC). The following applies: IB: Staphylococcus aureus (resistant to CP and PC).
Assay [6] has as its system Escherichia coli 609 (resistant to CER). The experiment in a line: Minimum Inhibitory Concentration, Escherichia coli 609 (resistant to CER). The following applies: read-out: Minimum Inhibitory Concentration.
In a further assay the test system is Escherichia coli NIHJ. The experiment in a line: Minimum Inhibitory Concentration, Escherichia coli NIHJ. The following applies: IIA: Escherichia coli NIHJ.
[7] abbreviates: IIB: Escherichia coli 609 (resistant to CER).

Converted amounts (≈) assume the structure as drawn. Where two headings read alike, the source gives them in different places.

As for `CCS(=O)(=O)CC(=O)N[C@]1(OC)C(=O)N2C(C(=O)O)=C(CSc3nnnn3C)CS[C@@H]21` [C2 H5 SO2 / drawing 6, 7β-ethylsulfonylacetamido-7α-methoxy-3-(1-methyl-1H-tetrazol-5-yl)thiomethyl-3-cephem-4-carboxylic acid], the MIC was 1.5 µg/mL (≈ 3.05 µM) in assay [1] and 0.8 µg/mL (≈ 1.62 µM) in assay [2].

Turning to `CO[C@@]1(NC(=O)CS(C)(=O)=O)C(=O)N2C(C(=O)O)=C(CSc3nnnn3C)CS[C@@H]21` [CH3 SO2 / drawing 6, 7β-methylsulfonylacetamido-7α-methoxy-3-(1-methyl-1H-tetrazol-5-yl)thiomethyl-3-cephem-4-carboxylic acid], the MIC in assay [1] stood at 1.5 µg/mL (≈ 3.13 µM).

For the compound `CO[C@@]1(NC(=O)CSCCO)C(=O)N2C(C(=O)O)=C(CSc3nnnn3C)CS[C@@H]21` [HOCH2 CH2 S / drawing 6, 7β-(2-hydroxyethylthio)acetamido-7α-methoxy-3-(1-methyl-1H-tetrazol-5-yl)thiomethyl-3-cephem-4-carboxylic acid], the MIC in the assay with Proteus vulgaris stood at 3.1 µg/mL (≈ 6.5 µM); in assay [3] it was 0.8 µg/mL (≈ 1.68 µM); in assay [1], 1.5 µg/mL (≈ 3.15 µM); in assay [2], 0.8 µg/mL (≈ 1.68 µM); in assay [4], 200 µg/mL (≈ 420 µM).

Regarding `CO[C@@]1(NC(=O)CSCN=[N+]=[N-])C(=O)N2C(C(=O)O)=C(COC(C)=O)CS[C@@H]21` [N3 CH2 S / OCOCH3, 3-acetoxymethyl-7β-azidomethylthioacetamido-7α-methoxy-3-cephem-4-carboxylic acid], the figures for the MIC (in assay [1]; in assay [4]; with Klebsiella neumoniae 806) were 6.2 µg/mL (≈ 14.4 µM), greater than 200 µg/mL and 6.2 µg/mL (≈ 14.4 µM), respectively.

For the compound `CO[C@@]1(NC(=O)CSCN=[N+]=[N-])C(=O)N2C(C(=O)O)=C(COC(N)=O)CS[C@@H]21` [N3 CH2 S / OCONH2, 7β-azidomethylthioacetamido-3-carbamoyloxymethyl-7α-methoxy-3-cephem-4-carboxylic acid], the MIC in assay [3] is 0.2 µg/mL (≈ 0.462 µM); in assay [1] it was 3.1 µg/mL (≈ 7.17 µM); in assay [4], greater than 400 µg/mL.

As for `CO[C@@]1(NC(=O)CSCN=[N+]=[N-])C(=O)N2C(C(=O)O)=C(CSc3nnnn3C)CS[C@@H]21` [N3 CH2 S / drawing 10, 7β-azidomethylthioacetamido-7α-methoxy-3-(1-methyl-1H-tetrazol-5-yl)thiomethyl-3-cephem-4-carboxylic acid], the MIC in assay [5] was 0.4 µg/mL (≈ 0.82 µM); in [3], 0.4 µg/mL (≈ 0.82 µM); in assay [1] it was 1.5 µg/mL (≈ 3.08 µM); in assay [2] it was 0.8 µg/mL (≈ 1.64 µM); in assay [4], greater than 200 µg/mL.

As for `CO[C@@]1(NC(=O)CS(=O)(=O)CCC#N)C(=O)N2C(C(=O)O)=C(CSc3nnnn3C)CS[C@@H]21` [NC(CH2)2 SO2 / drawing 6, 7β-cyanoethylsulfonyl-acetamido-7α-methoxy-3-(1-methyl-1H-tetrazol-5-yl)thiomethyl-3-cephem-4-carboxylic acid], the MIC in [1] was 3.1 µg/mL (≈ 5.99 µM); in assay [2] it was 0.8 µg/mL (≈ 1.55 µM); in assay [4], 200 µg/mL (≈ 386 µM).

As for `CO[C@@]1(NC(=O)CSCC#N)C(=O)N2C(C(=O)O)=C(COC(C)=O)CS[C@@H]21` [NCCH2 S / OCOCH3, 3-acetoxymethyl-7β-cyanomethylthioacetamido-7α-methoxy-3-cephem-4-carboxylic acid], in assay [1], the MIC came out at 3.1 µg/mL (≈ 7.46 µM).

As for `CO[C@@]1(NC(=O)CSCC#N)C(=O)N2C(C(=O)O)=C(COC(N)=O)CS[C@@H]21` [NCCH2 S / OCONH2, 3-carbamoyloxymethyl-7β-cyanomethylthioacetamido-7α-methoxy-3-cephem-4-carboxylic acid], the MIC in assay [5] was found to be 3.1 µg/mL (≈ 7.44 µM); in assay [1], 3.1 µg/mL (≈ 7.44 µM); in assay [2], 1.5 µg/mL (≈ 3.6 µM); in assay [6] (setting [7]) it was 1.5 µg/mL (≈ 3.6 µM); in the assay with Klebsiella neumoniae 806, 3.1 µg/mL (≈ 7.44 µM).

Take `CO[C@@]1(NC(=O)CSCC#N)C(=O)N2C(C(=O)O)=C(CSc3nnnn3C)CS[C@@H]21` [NCCH2 S / drawing 6, 7β-cyanomethylthioacetamido-7α-methoxy-3-(1-methyl-1H-tetrazol-5-yl)thiomethyl-3-cephem-4-carboxylic acid]: the MIC against Proteus vulgaris turned out to be 1.5 µg/mL (≈ 3.18 µM); in assay [3], 0.2 µg/mL (≈ 0.424 µM); in assay [1], 0.8 µg/mL (≈ 1.7 µM); in [2] it was 0.2 µg/mL (≈ 0.424 µM); in the assay with Klebsiella neumoniae 806, 0.8 µg/mL (≈ 1.7 µM).

Take `CO[C@@]1(NC(=O)C[n+]2cc([O-])on2)C(=O)N2C(C(=O)O)=C(CSc3nnnn3C)CS[C@@H]21` [drawing 7 / drawing 6, 7β-(sydnon-3)acetamido-7α-methoxy-3-(1-methyl-1H-tetrazol-5-yl)thiomethyl-3-cephem-4-carboxylic acid]: the MIC is 0.8 µg/mL (≈ 1.65 µM) in assay [3], 1.5 µg/mL (≈ 3.1 µM) in assay [1], 0.8 µg/mL (≈ 1.65 µM) in assay [2] and greater than 200 µg/mL in [4].

As for `CO[C@@]1(NC(=O)CSC(C)C#N)C(=O)N2C(C(=O)O)=C(CSc3nnnn3C)CS[C@@H]21` (stereo partly drawn) [drawing 8 / drawing 6, 7β-(1-cyanoethyl)-acetamido-7α-methoxy-3-(1-methyl-1H-tetrazol-5-yl)thiomethyl-3-cephem-4-carboxylic acid], the MIC in [5] is 0.8 µg/mL (≈ 1.65 µM); in the assay on Proteus vulgaris, 0.8 µg/mL (≈ 1.65 µM); in assay [3] it was 0.4 µg/mL (≈ 0.824 µM); in [1], 1.5 µg/mL (≈ 3.09 µM); in assay [2] it was 0.4 µg/mL (≈ 0.824 µM); in [4], 400 µg/mL (≈ 824 µM). The MIC in assay [6] (setting [7]) worked out at 3.1 µg/mL (≈ 6.38 µM); in the assay on Escherichia coli NIHJ it was 1.5 µg/mL (≈ 3.09 µM); in the assay on Klebsiella neumoniae 806, 1.5 µg/mL (≈ 3.09 µM).

Compound `C#CCSCC(=O)N[C@]1(OC)C(=O)N2C(C(=O)O)=C(CSc3nnnn3C)CS[C@@H]21` [drawing 9 / drawing 10, 7β-propargylthioacetamido-7α-methoxy-3-(1-methyl-1H-tetrazol-5-yl)thiomethyl-3-cephem-4-carboxylic acid] gave an MIC in assay [1] of 3.1 µg/mL (≈ 6.59 µM).

In assay [1], `CO[C@@]1(NC(=O)COc2ccon2)C(=O)N2C(C(=O)O)=C(CSc3nnnn3C)CS[C@@H]21` [drawing 11 / drawing 10, 7β-(3-isoxazolyloxy)acetamido-7α-methoxy-3-(1-methyl-1H-tetrazol-5-yl)thiomethyl-3-cephem-4-carboxylic acid] had an MIC of 3.1 µg/mL (≈ 6.41 µM).

As to `CO[C@@]1(NC(=O)CSc2ccon2)C(=O)N2C(C(=O)O)=C(CSc3nnnn3C)CS[C@@H]21` [drawing 12 / drawing 10, 7β-(3-isoxazolylthio)acetamido-7α-methoxy-3-(1-methyl-1H-tetrazol-5-yl)thiomethyl-3-cephem-4-carboxylic acid], the MIC in [5] was 0.8 µg/mL (≈ 1.6 µM); in assay [3], 0.2 µg/mL (≈ 0.4 µM); in assay [1], 3.1 µg/mL (≈ 6.21 µM); in assay [2] it was 0.8 µg/mL (≈ 1.6 µM); in [4] it was greater than 400 µg/mL.

`CO[C@@]1(NC(=O)CSc2ccon2)C(=O)N2C(C(=O)O)=C(COC(C)=O)CS[C@@H]21` [drawing 13 / OCOCH3, 3-acetoxymethyl-7β-(3-isoxazolylthio)acetamido-7α-methoxy-3-cephem-4-carboxylic acid] returned an MIC in assay [1] of 6.2 µg/mL (≈ 14 µM).

As for `C#CCSCC(=O)N[C@]1(OC)C(=O)N2C(C(=O)O)=C(COC(C)=O)CS[C@@H]21` [drawing 14 / OCOCH3], the MIC is 6.2 µg/mL (≈ 15 µM) in assay [5]; 12.5 µg/mL (≈ 30.2 µM) in the assay with Proteus vulgaris; 1.5 µg/mL (≈ 3.62 µM) in assay [3]; 12.5 µg/mL (≈ 30.2 µM) in assay [1]; 6.2 µg/mL (≈ 15 µM) in [2]; greater than 200 µg/mL in assay [4]. The MIC (in assay [6] (Escherichia coli); with Klebsiella neumoniae 806) was 12.5 µg/mL (≈ 30.2 µM) in each case.
